# Calls of active or inactive are those of the source. The calls are words filed in the database; no cut-off is given here. Where a SMILES comes first, the peptide text is derived from it. The star is where a group is joined. Cbz = O=C(OCc1ccccc1)*; OtBu = CC(C)(C)O*
# Key:
# PC-12 [1] = experiment: Cytotoxicity against rat PC12 cells after 24 hrs by MTT assay; assay type: functional, cell-based; conditions: PC-12, 24 h
# PC-12 [2] = experiment: Increase in reduced glutathione level in rat PC12 cells after 24 hrs; assay type: functional, cell-based
# PC-12 [3] = experiment: Inhibition of 6-hydroxydopamine induced cytotoxicity in rat PC12 cells pretreated for 24 hrs assessed as elevation of intracellular glutathione level; assay type: functional, cell-based
# PC-12 [4] = experiment: Inhibition of hydrogen peroxide induced cytotoxicity in rat PC12 cells pretreated for 24 hrs assessed as elevation of intracellular glutathione level; assay type: functional, cell-based
# PC-12 [5] = experiment: Increase in glutathione level in differentiated rat PC12 cells after 24 hrs; assay type: functional, cell-based
# PC-12 [6] = experiment: Reversal of cytoprotection activity in rat PC12 cells pretreated at 1 uM for 24 hrs in presence of p38 MAPK inhibitor SB-203580; assay type: functional, cell-based
# PC-12 [7] = experiment: Inhibition of 6-hydroxydopamine induced cytotoxicity in differentiated rat PC12 cells pretreated for 24 hrs by MTT assay; assay type: functional, cell-based
# PC-12 [8] = experiment: Inhibition of 6-hydroxydopamine induced cytotoxicity in differentiated rat PC12 cells pretreated for 24 hrs by lactate dehydrogenase release assay; assay type: functional, cell-based
# PC-12 [9] = experiment: Inhibition of proteosome activity in rat PC12 cells at 0.1 uM after 6 hrs relative to control; assay type: cell-based; parameters: scale not given: the % may be the effect or the level left
# PC-12 [10] = experiment: Inhibition of proteosome activity in rat PC12 cells at 0.1 uM after 24 hrs relative to control; assay type: cell-based; parameters: scale not given: the % may be the effect or the level left
# PC-12 [11] = experiment: Inhibition of proteosome activity in rat PC12 cells at 0.3 uM after 6 hrs relative to control; assay type: cell-based; parameters: scale not given: the % may be the effect or the level left
# PC-12 [12] = experiment: Inhibition of proteosome activity in rat PC12 cells at 0.3 uM after 24 hrs relative to control; assay type: cell-based; parameters: scale not given: the % may be the effect or the level left
# PC-12 [13] = experiment: Inhibition of proteosome activity in rat PC12 cells at 1 uM after 6 hrs relative to control; assay type: cell-based; parameters: scale not given: the % may be the effect or the level left
# PC-12 [14] = experiment: Inhibition of proteosome activity in rat PC12 cells at 1 uM after 24 hrs relative to control; assay type: cell-based; parameters: scale not given: the % may be the effect or the level left
# PC-12 [15] = experiment: Inhibition of hydrogen peroxide induced cytotoxicity in rat PC12 cells pretreated for 24 hrs by MTT assay; assay type: functional, cell-based
# PC-12 [16] = experiment: Inhibition of 300 uM 6-hydroxydopamine induced ROS production in rat PC12 cells pretreated at 1 uM for 24 hrs by MTT assay; assay type: functional, cell-based
# PC-12 [17] = experiment: Inhibition of 300 uM hydrogen peroxide induced ROS production in rat PC12 cells pretreated at 1 uM for 24 hrs by MTT assay; assay type: functional, cell-based
# PC-12 [18] = experiment: Inhibition of 150 uM 6-hydroxydopamine induced ROS production in rat PC12 cells pretreated for 24 hrs by MTT assay; assay type: functional, cell-based
# PC-12 [19] = experiment: Inhibition of 200 uM hydrogen peroxide induced ROS production in rat PC12 cells pretreated for 24 hrs by MTT assay; assay type: functional, cell-based
# PC-12 [20] = experiment: Increase in reduced glutathione level in rat PC12 cells at 1 uM after 24 hrs; assay type: functional
# PC-12 [21] = experiment: Increase in oxidized glutathione level in rat PC12 cells at 1 uM after 24 hrs; assay type: functional, cell-based
# PC-12 [22] = experiment: Increase in oxidized glutathione level in rat PC12 cells at 1 uM after 12 hrs; assay type: functional, cell-based
# PC-12 [23] = experiment: Reversal of increase in glutathione level in rat PC12 cells at 1 uM in presence of 10 nM cycloheximide after 24 hrs relative to control; assay type: functional
# PC-12 [24] = experiment: Reversal of increase in glutathione level in rat PC12 cells at 1 uM in presence of 30 nM cycloheximide after 24 hrs relative to control; assay type: functional
# PC-12 [25] = experiment: Reversal of increase in glutathione level in rat PC12 cells at 1 uM in presence of 100 nM cycloheximide after 24 hrs relative to control; assay type: functional
# PC-12 [26] = experiment: Reversal of increase in glutathione level in rat PC12 cells at 1 uM in presence of 3 uM SB-203580 after 24 hrs relative to control; assay type: functional
# PC-12 [27] = experiment: Reversal of increase in glutathione level in rat PC12 cells at 1 uM in presence of 10 uM SB-203580 after 24 hrs relative to control; assay type: functional
# PC-12 [28] = experiment: Reversal of increase in glutathione level in rat PC12 cells at 1 uM in presence of 30 uM SB-203580 after 24 hrs relative to control; assay type: functional
# PC-12 [29] = experiment: Reversal of increase in glutathione level in rat PC12 cells at 1 uM in presence of 3 uM BIM after 24 hrs relative to control; assay type: functional
# PC-12 [30] = experiment: Reversal of increase in glutathione level in rat PC12 cells at 1 uM in presence of 10 uM wortmannin after 24 hrs relative to control; assay type: functional
# PC-12 [31] = experiment: Reversal of increase in glutathione level in rat PC12 cells at 1 uM in presence of 30 uM PD-98059 after 24 hrs relative to control; assay type: functional
# PC-12 [32] = experiment: Reversal of increase in glutathione level in rat PC12 cells at 1 uM in presence of 10 uM SP600125 after 24 hrs relative to control; assay type: functional
# PC-12 [33] = experiment: Increase in GLCLC subunit mRNA expression in rat PC12 cells at 1 uM after 12 hrs; assay type: functional, cell-based
# PC-12 [34] = experiment: Reversal of increase in GLCLC subunit mRNA expression in rat PC12 cells at 1 uM after 12 hrs in presence of p38 MAPK inhibitor SB-203580; assay type: functional, cell-based
# PC-12 [35] = experiment: Inhibition of 6-hydroxydopamine-induced cytotoxicity in rat PC12 cells pretreated for 24 hrs by MTT assay; assay type: functional, cell-based
# PC-12 [36] = experiment: Translocation of Nrf2 protein to nucleus in rat PC12 cells at 1 uM around 6 or 9 hrs; assay type: functional, cell-based
compound,measurement,setting,value
NCCc1cc(O)c(O)cc1O [OXIDOPAMINE],EC50,PC-12 [1],106 µM
CC[C@H](C)[C@H](NC(=O)OCc1ccccc1)C(=O)N[C@@H](CCC(=O)OC(C)(C)C)C(=O)N[C@@H](C)C(=O)N[C@H](C=O)CC(C)C (Cbz-IE(OtBu)AL-aldehyde),Activity,PC-12 [2],Active
CC(C)C[C@@H](C=O)NC(=O)[C@H](CC(C)C)NC(=O)[C@H](CC(C)C)NC(=O)OCc1ccccc1 (Cbz-Leu-Leu-Leu-aldehyde),Activity,PC-12 [2],Active
CC(=O)N[C@@H](CS)C(=O)O,Activity,PC-12 [3],Active
same,Activity,PC-12 [4],Active
CC(=O)N[C@@H](CSC(=O)[C@]1([C@@H](O)C(C)C)NC(=O)[C@H](C)[C@@H]1O)C(=O)O [LACTACYSTIN],Activity,PC-12 [5],Dose-dependent effect
same,Activity,PC-12 [6],Active
same,Activity,PC-12 [7],Dose-dependent effect
same,Activity,PC-12 [8],Active
same,Activity,PC-12 [2],Dose-dependent effect
same,Activity,PC-12 [9],98%
same,Activity,PC-12 [10],94.3%
same,Activity,PC-12 [11],70.3%
same,Activity,PC-12 [12],84.9%
same,Activity,PC-12 [13],49.7%
same,Activity,PC-12 [14],77.2%
same,Activity,PC-12 [15],Dose-dependent effect
same,Activity,PC-12 [16],Active
same,Activity,PC-12 [17],Active
same,Activity,PC-12 [18],Active
same,Activity,PC-12 [19],Active
same,Activity,PC-12 [20],320.5 nmol/mg
same,Activity,PC-12 [21],Active
same,Activity,PC-12 [22],inactive
same,Activity,PC-12 [23],216.8 nmol/mg
same,Activity,PC-12 [24],150 nmol/mg
same,Activity,PC-12 [25],98.3 nmol/mg
same,Activity,PC-12 [26],220 nmol/mg
same,Activity,PC-12 [27],190.5 nmol/mg
same,Activity,PC-12 [28],133.5 nmol/mg
same,Activity,PC-12 [29],354 nmol/mg
same,Activity,PC-12 [30],248.7 nmol/mg
same,Activity,PC-12 [31],234 nmol/mg
same,Activity,PC-12 [32],341.4 nmol/mg
same,Activity,PC-12 [33],Active
same,Activity,PC-12 [34],Active
same,Activity,PC-12 [35],Dose-dependent effect
same,Activity,PC-12 [36],Active

# Source: ChEMBL document CHEMBL1156425, “Proteasome inhibition induces glutathione synthesis and protects cells from oxidative stress: relevance to Parkinson disease” (J Biol Chem, 2007)
